For series [1] the following is noted: cited from earlier work.
For series [2] the following is noted: cited from earlier work. This is another data set of the same source.
The conditions of series [3]: patients without diabetes, cited from earlier work.
For series [4] the following is noted: 10 mg BID, patients with type 2 diabetes, cited from earlier work.
Series [5] deals with T1, 5-HT2B receptor (Homo sapiens, UniProt P41595). Put plainly: Radioligand binding assay with [125I]DOI. Particulars: competition with [125I]DOI, read-out: DOI Binding Ki (nM) 2B.
The target of series [6] is T2, 5-HT2A receptor (Homo sapiens, UniProt P28223). Put plainly: Radioligand binding assay with [125I]DOI. The settings on record: competition with [125I]DOI, read-out: DOI Binding Ki (nM) 2A.
The target of series [7] is T3, 5-HT2C receptor (Homo sapiens, UniProt P28335).
T3 construct: expressed in transfected cells; host or cells: HEK293
T3 sequence (P28335 33-458): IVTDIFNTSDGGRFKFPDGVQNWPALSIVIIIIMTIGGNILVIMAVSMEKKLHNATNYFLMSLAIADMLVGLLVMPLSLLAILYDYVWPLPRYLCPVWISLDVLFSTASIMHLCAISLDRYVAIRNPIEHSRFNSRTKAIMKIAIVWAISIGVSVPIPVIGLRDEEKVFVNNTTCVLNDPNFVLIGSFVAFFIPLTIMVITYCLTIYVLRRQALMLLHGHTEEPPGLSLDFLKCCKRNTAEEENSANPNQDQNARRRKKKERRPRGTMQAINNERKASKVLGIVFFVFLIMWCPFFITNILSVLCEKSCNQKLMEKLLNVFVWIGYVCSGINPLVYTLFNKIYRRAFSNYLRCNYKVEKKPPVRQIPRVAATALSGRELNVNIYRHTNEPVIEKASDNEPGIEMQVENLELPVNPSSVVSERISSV
Kind of series: Radioligand binding assay with [125I]DOI. Particulars: competition with [125I]DOI, membranes of HEK293 cells expressing recombinant 5-HT2C receptors; read-out: DOI Binding Ki (nM) 2C. As to the method:
For the compounds of Table A, the following procedure was used. HEK293 cells stably expressing recombinant 5-HT2C receptors were harvested, suspended in ice-cold phosphate buffered saline, pH 7.4 (PBS), and then centrifuged at 48,000 g for 20 min at 4° C. The resulting cell pellet was then re-suspended in wash buffer containing 20 mM HEPES, pH 7.4 and 0.1 mM EDTA, homogenized on ice using a Brinkman Polytron, and centrifuged (48,000 g for 20 min at 4° C.). The pellet was then resuspended in 20 mM HEPES, pH 7.4, homogenized on ice, and centrifuged (48,000 g for 20 min at 4° C.). Crude membrane pellets were stored at −80° C. until used for radioligand binding assays.
For the compounds of Table A, the following procedure was used. […] Experiments comprised addition of 95 μL of assay buffer (20 mM HEPES, pH 7.4, 10 mM MgCl2), 50 μL of membranes, 50 μL of radioligand stock, and 5 μL of test compound diluted in assay buffer to 96-well microtiter plates, which were then incubated for 1 h at room temperature. Assay incubations were terminated by rapid filtration through PerkinElmer F/C filtration plates under reduced pressure using a 96-well Packard filtration apparatus, followed by washing three times with ice cold assay buffer. Plates were then dried at 45° C. for a minimum of 2 h. Finally, 25 μL of BetaScint™ scintillation cocktail was added to each well and the plates were counted in a Packard TopCount® scintillation counter. In each competition study, test compounds were dosed at ten concentrations with triplicate determinations at each test concentration.

The target of series [8] is T3, 5-HT2C receptor. Put plainly: IP accumulation assay. It is filed as cell-based. The settings on record: HEK293 cells expressing recombinant 5-HT2C receptors, [3H]inositol phosphates, 2 h at 37° C. As to the method: HEK293 cells expressing recombinant 5-HT2C receptors were added to sterile poly-D-lysine-coated 96-well microtiter plates (35,000 cells/well) and labeled with 0.6 µCi/well of [^3H]inositol in myoinositol-free DMEM for 18 h. Unincorporated [^3H]inositol was removed by aspiration and replaced with fresh myoinositol-free DMEM supplemented with LiCl (10 mM final) and pargyline (10 μM final). Serially diluted test compounds were then added and incubation was conducted for 2 h at 37° C. Incubations were then terminated by lysing cells with the addition of ice-cold 0.1 M formic acid followed by freezing at −80° C. After thawing, total [^3H]inositol phosphates were resolved from [^3H]inositol using AG1-X8 ion exchange resin (Bio-Rad) and [^3H]inositol phosphates were measured by scintillation counting using a Perkin Elmer TopCount® scintillation counter. All EC50 determinations were performed using 10 different concentrations and triplicate determinations were made at each test concentration.

Series [9] addresses T2, 5-HT2A receptor. Kind of series: IP accumulation assay. It is filed as cell-based. The settings on record: [3H]inositol phosphates, read-out: IP Accumulation EC50 (nM) 2A.
Series [10] concerns the target T1, 5-HT2B receptor. Put plainly: IP accumulation assay. In kind it is cell-based. Particulars: [3H]inositol phosphates, read-out: IP Accumulation EC50 (nM) 2B.
The conditions of series [11]: reports that led to withdrawal by the FDA in 1998; cited from earlier work.
Where [12] appears, read: pivotal phase 3 program, treated for up to two years.
Where [13] appears, read: patients with type 2 diabetes, BELVIQ BID.
Setting [14] is: patients without type 2 diabetes.

Like-named read-outs stand apart in the source and are kept apart here.

T2 sequence (P28223 whole entry): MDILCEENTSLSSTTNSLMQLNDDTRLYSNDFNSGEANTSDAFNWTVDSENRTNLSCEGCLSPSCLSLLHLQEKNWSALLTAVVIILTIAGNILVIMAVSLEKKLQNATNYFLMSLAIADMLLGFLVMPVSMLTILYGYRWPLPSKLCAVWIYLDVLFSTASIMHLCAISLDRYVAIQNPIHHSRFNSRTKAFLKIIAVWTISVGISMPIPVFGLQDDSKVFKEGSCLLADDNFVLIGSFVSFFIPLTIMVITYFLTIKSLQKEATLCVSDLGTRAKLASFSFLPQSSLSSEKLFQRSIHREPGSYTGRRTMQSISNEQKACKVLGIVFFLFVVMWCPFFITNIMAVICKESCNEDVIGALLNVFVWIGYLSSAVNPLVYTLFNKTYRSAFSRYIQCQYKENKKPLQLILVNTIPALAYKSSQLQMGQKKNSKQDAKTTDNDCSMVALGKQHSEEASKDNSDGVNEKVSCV
T1 sequence (P41595 whole entry): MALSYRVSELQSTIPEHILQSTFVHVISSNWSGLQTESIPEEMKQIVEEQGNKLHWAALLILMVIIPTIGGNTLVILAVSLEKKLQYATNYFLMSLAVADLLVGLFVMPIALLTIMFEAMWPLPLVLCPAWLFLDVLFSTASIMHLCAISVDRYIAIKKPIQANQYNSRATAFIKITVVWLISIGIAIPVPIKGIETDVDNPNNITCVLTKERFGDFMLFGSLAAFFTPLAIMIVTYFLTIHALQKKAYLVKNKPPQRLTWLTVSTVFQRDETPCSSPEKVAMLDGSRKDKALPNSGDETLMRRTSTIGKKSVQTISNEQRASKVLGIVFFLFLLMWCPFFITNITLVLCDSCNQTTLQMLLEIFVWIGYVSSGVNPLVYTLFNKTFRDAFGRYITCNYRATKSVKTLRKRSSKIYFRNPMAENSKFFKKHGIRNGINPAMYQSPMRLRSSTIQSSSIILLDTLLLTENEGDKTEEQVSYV

On to `C[C@H]1CNCCc2ccc(Cl)cc21` [lorcaserin, (R)-8-chloro-1-methyl-2,3,4,5-tetrahydro-1H-3-benzazepine], for which, in series [1] (first phase 3 trial, based on a normal BMI of 25), the “share of excess body weight lost” value is on record as “about one-third”. In addition, the “risk of cardiac valvulopathy” value in [1] (phase 3 program) was “did not increase the risk of cardiac valvulopathy”. Also, in series [1] (setting [12]), the “proportion of patients that achieved at least 5% weight loss” value is reported as “About two-thirds” and the “proportion of patients that achieved at least 10% weight loss” value is listed as “over one-third”. In addition, the “average weight lost as share of their weight” value in series [1] (pivotal phase 3 program) is reported as “about 8%”. Also, in series [1] (second phase 3 trial), the “average weight loss, top quartile of patients” value was 35 pounds and the “average weight loss, top quartile of patients, of body weight” value is on record as 16%. Moreover, in series [2] (setting [13]), the “patients who decreased the total daily dose of medications used for treatment of dyslipidemia” value is reported as 5.5% and the “patients who increased use of medications used for treatment of dyslipidemia” value is on record as 3.1%. Also, the “decrease of mean daily doses of sulfonylureas and thiazolidinediones” value in series [2] (patients with type 2 diabetes, BELVIQ groups) is 16-24%. In addition, in series [2] (patients with type 2 diabetes), the “patients who decreased total daily dose of antihypertensive medications” value is 8.2% and the “patients who increased total daily dose of antihypertensive medications” value is recorded as 6.6%. For the same compound, in series [2] (setting [14]), the “patients who decreased the total daily dose of medications used for treatment of dyslipidemia” value is on record as 1.3%, the “patients who decreased total daily dose of antihypertensive medications” value was 2.2%, the “patients who increased total daily dose of antihypertensive medications” value is 2.2% and the “patients who increased use of medications used for treatment of dyslipidemia” value is on record as 2.6%. For the same compound, in series [3] (one study, placebo −0.2), the “change of insulin resistance (HOMA-IR)” value is given as −0.4. Further, the “change of fasting insulin” value in [3] (one study, placebo −1.3 μIU/mL) is on record as −3.3 μIU/mL. In addition, in series [3] (placebo +0.6 mg/dL), the “change of mean fasting glucose” value was -0.2 mg/dL. Moreover, in series [4] (placebo 0.4%), the “reduction in HbA1c” value is on record as 0.9%. For the same compound, the “reduction in fasting glucose” value in [4] (placebo 11.9%) is 27.4%.

By Ki is commonly meant a dissociation constant, usually derived from enzyme kinetics or from competition with a known ligand. Regarding `Brc1ccc2c3c1CCCC3CCNC2` (stereo not shown) [Compound 106, 8-bromo-1,2,3,4,4a,5,6,7-octahydronaphtho[1,8-cd]azepine], the Ki in [5] is 125 nM; in series [6], 244 nM; in [7], 105 nM.

The term EC50 denotes the concentration giving half of the maximal effect. Take `CCc1ccc2c3c1C1(CC1)C1(CC1)CC3CCNC2` (stereo not shown) [Compound 101, 8′-ethyl-2′,3′,4′,4a′,5′-pentahydro-1′H-dispiro[cyclopropane-1,6′-cyclopropane-7′,1″- naphtho[1,8-cd]azepine]]: the half-maximal effective concentration (EC50) in [8] was 2040 nM; in series [9], above 100000 nM; in [10], above 100000 nM.

As for `CC1(C)CCC2CCNCc3cccc1c32` (stereo not shown) [Compound 135, 7,7-dimethyl-1,2,3,4,4a,5,6,7-octahydronaphtho[1,8-cd]azepine], the inhibitory constant (Ki) worked out at 395 nM in [5], 458 nM in [6] and 69.6 nM in series [7].

With `CCN[C@@H](C)Cc1cccc(C(F)(F)F)c1` [d-fenfluramine], in series [11], the “share of patients with reported cardiac valve defects” value is listed as “up to one third”.

As for `c1cc2c3c(c1)C1(CCC3CCNC2)CC1` (stereo not shown) [Compound 128, 2′,3′,4′,4a′,5′,6′-hexahydro-1′H-spiro[cyclopropane-1,7′-naphtho[1,8-cd]azepine]], the EC50 was 108 nM in series [8], above 100000 nM in series [9] and 284 nM in series [10].

As for `c1cc2c3c(c1)C1(CC1)C1(CC1)CC3CCNC2` (stereo not shown) [Compound 130, 2′,3′,4′,4a′,5′-pentahydro-1′H-dispiro[cyclopropane-1,6′-cyclopropane-7′,1″- naphtho[1,8-cd]azepine]], the Ki came to 75.7 nM in [5], 34.4 nM in series [6] and 1.96 nM in [7]. Also, the values for the EC50 in [8], in series [9] and in series [10] were 5.21 nM, 465 nM and 967 nM, respectively.

As to `CC1(C)CC2CCNCc3ccc(F)c(c32)C12CC2` (stereo not shown) [Compound 119, 8′-fluoro-6′,6′-dimethyl-2′,3′,4′,4a′,5′,6′-hexahydro-1′H-spiro[cyclopropane-1,7′-naphtho[1,8-cd]azepine]], the values for the EC50 in series [8], in [9] and in series [10] were 391 nM, above 100000 nM and above 100000 nM, respectively.

For the compound `c1cc2c3c(c1)C1(CCC1)CCC3CCNC2` (stereo not shown) [Compound 131, 2′,3′,4′,4a′,5′,6′-hexahydro-1′H-spiro[cyclobutane-1,7′-naphtho[1,8-cd]azepine]], the EC50 in series [8] was 83.5 nM; in [9], above 100000 nM; in series [10] it was above 100000 nM.

As to `CC1(C)c2cccc3c2C(CCNC3)CC12CC2` (stereo not shown) [Compound 121, 7,7′-dimethyl-2′,3′,4′,4a′,5′,7′-hexahydro-1′H-spiro[cyclopropane-1,6′-naphtho[1,8-cd]azepine]], the Ki amounted to 634 nM in [5], 423 nM in series [6] and 27.6 nM in series [7]. The values for the EC50 in series [8], in series [9] and in [10] were 222 nM, above 100000 nM and above 100000 nM, respectively.

With `CC1(C)CC2CCNCc3cccc(c32)C12CC2` (stereo not shown) [Compound 102, 6′,6′-dimethyl-2′,3′,4′,4a′,5′,6-hexahydro-1′H-spiro[cyclopropane-1,7′-naphtho[1,8-cd]azepine]], the Ki came to 255 nM in series [5], 236 nM in series [6] and 10.3 nM in [7].

Source of the values: patent US11395824B2, “5-HT2C receptor agonists and compositions and methods of use” (Arena Pharmaceuticals, Inc., priority 2015, dated 2022).
